Assay results as given in US11945796B2, “Substituted pyridine derivatives as SARM1 inhibitors” (Nura Bio, Inc., priority 2020, dated 2024).

Target: T1, human SARM1(50-724) (Homo sapiens, UniProt Q6SZW1)
T1 construct: 40 nM human SARM1(50-724)
T1 sequence (Q6SZW1 50-724): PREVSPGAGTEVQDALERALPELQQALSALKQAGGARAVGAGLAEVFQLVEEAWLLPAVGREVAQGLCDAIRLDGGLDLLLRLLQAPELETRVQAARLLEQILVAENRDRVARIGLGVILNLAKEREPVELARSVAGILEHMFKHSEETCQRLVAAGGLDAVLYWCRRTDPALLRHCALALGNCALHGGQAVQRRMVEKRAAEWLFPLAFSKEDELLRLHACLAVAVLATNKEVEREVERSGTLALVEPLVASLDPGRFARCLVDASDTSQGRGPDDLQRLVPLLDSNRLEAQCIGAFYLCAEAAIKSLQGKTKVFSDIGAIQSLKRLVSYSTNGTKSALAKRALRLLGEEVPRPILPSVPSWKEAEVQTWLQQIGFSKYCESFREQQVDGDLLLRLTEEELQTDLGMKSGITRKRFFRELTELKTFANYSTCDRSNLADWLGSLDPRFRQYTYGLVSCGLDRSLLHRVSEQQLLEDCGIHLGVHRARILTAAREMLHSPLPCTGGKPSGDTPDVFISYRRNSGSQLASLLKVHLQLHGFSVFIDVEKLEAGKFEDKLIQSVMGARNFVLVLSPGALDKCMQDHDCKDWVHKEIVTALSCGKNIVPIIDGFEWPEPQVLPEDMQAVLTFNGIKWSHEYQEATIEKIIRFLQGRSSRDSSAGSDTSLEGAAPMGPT
Assay: SARM1 NADase biochemical assay (HPLC peak areas of NAD and NAM)
Settings: for IC50: dose-response, 1:3 serial dilution from 100 μM, 40 nM SARM1, 0.3 mM NMN, 20 μM NAD, 60 min rt; for Avg NAD % inhibition at 50 μM / Avg NAM % inhibition at 50 μM: 50 μM compound; for Avg NAD % inhibition at 50 μM: NAD peak area; for Avg NAM % inhibition at 50 μM: NAM peak area

Row | Substance | IC50 [µM] | Avg NAD % inhibition at 50 μM | Avg NAM % inhibition at 50 μM
1 | (R)-3-Chloro-4-(1-(1-(2,2,2-trifluoroethyl)-1H-pyrazol-3-yl)ethyl)pyridine and (S)-3-Chloro-4-(1-(1-(2,2,2-trifluoroethyl)-1H-pyrazol-3-yl)ethyl)pyridine [Example 113] | 1 to 10 | – | –
2 | (R)-3-Fluoro-4-(1-(1-(2,2,2-trifluoroethyl)-1H-pyrazol-3-yl)ethyl)pyridine and (S)-3-Fluoro-4-(1-(1-(2,2,2-trifluoroethyl)-1H-pyrazol-3-yl)ethyl)pyridine [Example 78] | 1 to 10 | – | –
3 | (R)-4-(1-(1-(2,2-Difluoroethyl)-1H-pyrazol-3-yl)ethyl)pyridine and (S)-4-(1-(1-(2,2-Difluoroethyl)-1H-pyrazol-3-yl)ethyl)pyridine [Example 110] | 10 to 100 | – | –
4 | (R)-4-(1-(1-(2,2-Difluoroethyl)-1H-pyrazol-3-yl)ethyl)pyridine and (S)-4-(1-(1-(2,2-Difluoroethyl)-1H-pyrazol-3-yl)ethyl)pyridine [Example 111] | 1 to 10 | – | –
5 | (R)-4-(1-(1-(2,2-Difluoroethyl)-1H-pyrazol-3-yl)ethyl-2,2,2-d3)pyridine and (S)-4-(1-(1-(2,2-Difluoroethyl)-1H-pyrazol-3-yl)ethyl-2,2,2-d3)pyridine [Example 114] | – | * (% Inhibition 0-50%) | * (% Inhibition 0-50%)
6 | (R)-4-(1-(1-(2,2-Difluoroethyl)-1H-pyrazol-3-yl)ethyl-2,2,2-d3)pyridine and (S)-4-(1-(1-(2,2-Difluoroethyl)-1H-pyrazol-3-yl)ethyl-2,2,2-d3)pyridine [Example 114a] | 1 to 10 | – | –
7 | (S)-2-(1-(1-(Pyridin-4-yl)ethyl)-1H-pyrazol-3-yl)acetonitrile and (R)-2-(1-(1-(Pyridin-4-yl)ethyl)-1H-pyrazol-3-yl)acetonitrile [Example 27] | 1 to 10 | – | –
8 | (S)-2-((1-(1-(Pyridin-4-yl)ethyl)-1H-pyrazol-3-yl)amino)acetonitrile and (R)-2-((1-(1-(Pyridin-4-yl)ethyl)-1H-pyrazol-3-yl)amino)acetonitrile [Example 7] | 1 to 10 | – | –
9 | (S)-4-(1-(1-(2,2,2-Trifluoroethyl)-1H-pyrazol-3-yl)ethyl)pyridine and (R)-4-(1-(1-(2,2,2-Trifluoroethyl)-1H-pyrazol-3-yl)ethyl)pyridine [Example 13a] | < 1 | – | –
10 | (S)-4-(1-(1-(2,2,2-Trifluoroethyl)-1H-pyrazol-3-yl)ethyl)pyridine and (R)-4-(1-(1-(2,2,2-Trifluoroethyl)-1H-pyrazol-3-yl)ethyl)pyridine [Example 13b] | – | ** (51-100%) | ** (51-100%)
11 | (S)—N-(2,2-Difluoroethyl)-1-(1-(pyridin-4-yl)ethyl)-1H-pyrazol-3-amine and (R)—N-(2,2-Difluoroethyl)-1-(1-(pyridin-4-yl)ethyl)-1H-pyrazol-3-amine [Example 8a] | – | * (% Inhibition 0-50%) | * (% Inhibition 0-50%)
12 | (S)—N-(2,2-Difluoroethyl)-1-(1-(pyridin-4-yl)ethyl)-1H-pyrazol-3-amine and (R)—N-(2,2-Difluoroethyl)-1-(1-(pyridin-4-yl)ethyl)-1H-pyrazol-3-amine [Example 8b] | < 1 | – | –
